Read-outs that look alike come from different tables or passages of the source.
Columns and labels:
[1] = tested on: Klebsiella pneumoniae ATCC BAA-2146; assay: Minimum inhibitory concentration (MIC), broth-microdilution (CLSI); format: cell-based
From the text: (§1) The strain included in the study was Klebsiella pneumoniae ATCC BAA-2146 (Himedia®, India) with presence of New Delhi metallo-β-lactamase (NDM-1) gene. The quality control reference strains Escherichia coli ATCC 25922 and Pseudomonas aeruginosa ATCC 27853 were procured from Himedia®, India.
MIC values were identified through broth-microdilution in sterilized 96-well polystyrene flat-bottom microtitre plates (Cole-Parmer®) according to the guideline of the Clinical and Laboratory Standards Institute (CLSI) (CLSI; Methods for dilution antimicrobial susceptibility tests for bacteria that grow aerobically; Clinical Laboratory Standards Institute, M07-A09, 2012). This method involves the use of BBL™ Cation-adjusted Mueller-Hinton II Broth (CA-MHB; BD) and the strain (Klebsiella pneumoniae ATCC BAA-2146) concentration was adjusted to 5×10^5 CFU/mL. After 16-18 h of incubation at various concentrations of Imipenem, Meropenem (Alfa Aesar), or test compounds at 37° C., MIC was defined as the lowest concentration of antibiotic or test compound with no visible growth.

[2] = tested on: Klebsiella pneumoniae ATCC BAA-2146; assay: Checkerboard synergy assay in combination with Meropenem; format: cell-based; conditions: K. pneumoniae ATCC BAA-2146; for Fold reduction in meropenem MIC in the presence of compounds (μg/mL) 4: compound at 4 μg/mL; for Fold reduction in meropenem MIC in the presence of compounds (μg/mL) 8: compound at 8 μg/mL; for Fold reduction in meropenem MIC in the presence of compounds (μg/mL) 16: compound at 16 μg/mL; for Fold reduction in meropenem MIC in the presence of compounds (μg/mL) 32: compound at 32 μg/mL
From the text: as §1
(§2) The fold modulation activity of test compounds, in combination with Imipenem or Meropenem, was checked against Klebsiella pneumoniae ATCC BAA-2146 strain by the broth-microdilution checkerboard synergy assay. The plates contained 5×10^5 CFU/mL bacterial inocula and 2-fold serial dilutions of the antibiotics (128-2 μg/mL) as well as test compounds (32-4 μg/mL) in a total volume of 200 μL of CA-MHB. Dimethyl sulfoxide (DMSO, ≤2.5%) was included as vehicle control. Following 16-18 h of incubation at 37° C., the MICs of antibiotics as well as drug combinations were visually inspected.

IMP-1 = IMP-1 (Serratia marcescens, UniProt P52699); assay: Enzyme activity: IC50 in fluorescence assay with cephalosporin substrate FC5; format: biochemical; conditions: 100 pM IMP-1, 10 μM FC5, 10 min pre-incubation
Description: (§3) The Class B beta-lactamases activities were measured in the presence of the test inhibitors in a fluorescence assay against an in-house synthesized fluorescent cephalosporin substrate FC5 (Berkel, et. al. J. Med. Chem. 2013, 56(17), 6945). The enzymes (NDM-1, IMP-1) and the substrate were diluted in 20 mM HEPES, pH 7.4, supplemented with 300 mM NaCl and 10 μM ZnSO4. In the assay, the final concentration of enzyme was 50 pM, and 100 pM for NDM-1, and IMP-1 respectively, and the final concentration of FC5 was 1.5 μM for NDM-1 and 10 μM for IMP-1. The test inhibitors/compounds were dissolved in dimethylsulfoxide (DMSO) and diluted in the assay with assay buffer (20 mM HEPES, pH 7.4, supplemented with 5% DMSO, 300 mM NaCl and 10 μM ZnSO4), resulting in a final concentration range of 0.008 μM to 25 μM. The assays were performed in 96-well microplate (flat bottom, black). The test inhibitors were incubated with the MBL enzyme for 10 min at room temperature, followed by addition the substrate and the fluorescence was recorded immediately (λex 380 nm, λem 460 nm) on a microplate reader. Using the initial velocity data plotted against the inhibitor concentration, the half-maximal inhibitory concentrations were calculated by an IC50 curve-fitting model in GraphPad Prism 9 software.

NDM-1 = NDM-1 (Klebsiella pneumoniae, UniProt C7C422); assay: as above; format: biochemical; conditions: 50 pM NDM-1, 1.5 μM FC5, 10 min pre-incubation
Description: as §3

[3] = tested on: Klebsiella pneumoniae ATCC BAA-2146; assay: Checkerboard synergy assay in combination with Imipenem; format: cell-based; conditions: K. pneumoniae ATCC BAA-2146; for Fold reduction in Imipenem MIC in the presence of compounds (μg/mL) 4: compound at 4 μg/mL; for Fold reduction in Imipenem MIC in the presence of compounds (μg/mL) 8: compound at 8 μg/mL; for Fold reduction in Imipenem MIC in the presence of compounds (μg/mL) 16: compound at 16 μg/mL; for Fold reduction in Imipenem MIC in the presence of compounds (μg/mL) 32: compound at 32 μg/mL
From the text: as §1, §2

[4] = ATCCBAA2146, compound alone, Imipenem series, K. pneumoniae ATCC BAA-2146, read-out: Intrinsic MIC
[5] = ATCCBAA2146, compound alone, meropenem series, K. pneumoniae ATCC BAA-2146, read-out: Intrinsic MIC

Sequence of IMP-1 (P52699 19-246, looked up, species assumed): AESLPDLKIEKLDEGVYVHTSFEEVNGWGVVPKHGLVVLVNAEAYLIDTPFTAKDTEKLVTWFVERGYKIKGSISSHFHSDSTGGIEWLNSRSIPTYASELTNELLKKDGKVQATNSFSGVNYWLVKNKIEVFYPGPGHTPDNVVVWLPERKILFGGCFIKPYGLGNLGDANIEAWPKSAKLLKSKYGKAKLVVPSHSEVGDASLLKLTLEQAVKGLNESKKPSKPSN
Sequence of NDM-1 (C7C422 29-270, looked up): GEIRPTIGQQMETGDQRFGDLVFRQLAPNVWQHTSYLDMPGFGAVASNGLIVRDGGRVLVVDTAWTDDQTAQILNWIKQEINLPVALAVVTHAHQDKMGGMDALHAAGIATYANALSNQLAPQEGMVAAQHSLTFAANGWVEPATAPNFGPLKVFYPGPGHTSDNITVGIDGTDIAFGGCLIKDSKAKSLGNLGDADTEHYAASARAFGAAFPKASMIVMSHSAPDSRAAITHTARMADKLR

Row | Structure (SMILES) | MIC [1, 4] | MIC [1, 5] | Fold reduction in meropenem MIC in the presence of compounds (μg/mL) 4 [2] | Fold reduction in meropenem MIC in the presence of compounds (μg/mL) 8 [2] | Fold reduction in meropenem MIC in the presence of compounds (μg/mL) 16 [2] | Fold reduction in meropenem MIC in the presence of compounds (μg/mL) 32 [2] | IC50 (IMP-1) | IC50 (NDM-1) | Fold reduction in Imipenem MIC in the presence of compounds (μg/mL) 4 [3] | Fold reduction in Imipenem MIC in the presence of compounds (μg/mL) 8 [3] | Fold reduction in Imipenem MIC in the presence of compounds (μg/mL) 16 [3] | Fold reduction in Imipenem MIC in the presence of compounds (μg/mL) 32 [3] | MIC ([1]; ATCCBAA2146, antibiotic alone, read-out: MIC of meropenem against Klebsiella pneumoniae ATCC BAA-2146)
1 | O=C(O)c1[nH]c2c(c1-c1cc(Cl)cc(Cl)c1)CCc1ccccc1-2 [Example 2, 3-(3,5-dichlorophenyl)-4,5-dihydro-1H-benzo[g]indole-2-carboxylic Acid] | > 64 µg/mL | > 128 µg/mL | 4 fold | 8 fold | 8 fold | 16 fold | 0.026 µM | 0.036 µM | – | – | – | – | –
2 | COc1ccccc1-c1c(C(=O)O)[nH]c2c1CCc1ccccc1-2 [Example 35, 3-(2-methoxyphenyl)-4,5-dihydro-1H-benzo[g]indole-2-carboxylic Acid] | > 128 µg/mL | > 128 µg/mL | 4 fold | 4 fold | 8 fold | 8 fold | 1.81 µM | 0.248 µM | 2 fold | 4 fold | 4 fold | 8 fold | –
3 | O=C(O)c1[nH]c2c(c1-c1cccc(Cl)c1)CCc1ccccc1-2 [Example 45, 3-(3-chlorophenyl)-4,5-dihydro-1H-benzo[g]indole-2-carboxylic Acid] | > 128 µg/mL | > 128 µg/mL | 2 fold | 4 fold | 4 fold | 8 fold | – | 0.132 µM | 2 fold | 4 fold | 8 fold | 8 fold | –
4 | Cc1cc(Cl)cc(-c2c(C(=O)O)[nH]c3c2CCc2ccccc2-3)c1 [Example 57, 3-(3-chloro-5-methylphenyl)-4,5-dihydro-1H-benzo[g]indole-2-carboxylic Acid] | > 128 µg/mL | > 128 µg/mL | 4 fold | 4 fold | 8 fold | 8 fold | – | 1.6 µM | 4 fold | 8 fold | 8 fold | 16 fold | –
5 | O=C(O)c1[nH]c2c(c1-c1cc(F)cc(Cl)c1)CCc1ccccc1-2 [Example 58, 3-(3-chloro-5-fluorophenyl)-4,5-dihydro-1H-benzo[g]indole-2-carboxylic Acid] | > 128 µg/mL | > 128 µg/mL | – | – | – | – | 0.869 µM | 0.009 µM | 4 fold | 8 fold | 8 fold | 16 fold | –
6 | COc1cc(F)cc(-c2c(C(=O)O)[nH]c3c2CCc2ccccc2-3)c1 [Example 62, 3-(3-fluoro-5-methoxyphenyl)-4,5-dihydro-1H-benzo[g]indole-2-carboxylic Acid] | > 128 µg/mL | > 128 µg/mL | – | – | – | – | 3.45 µM | 0.196 µM | 4 fold | 4 fold | 8 fold | 8 fold | –

The next lines start with the values.

Row | MIC [1, 4] | MIC [1, 5] | Fold reduction in meropenem MIC in the presence of compounds (μg/mL) 4 [2] | Fold reduction in meropenem MIC in the presence of compounds (μg/mL) 8 [2] | Fold reduction in meropenem MIC in the presence of compounds (μg/mL) 16 [2] | Fold reduction in meropenem MIC in the presence of compounds (μg/mL) 32 [2] | IC50 (IMP-1) | IC50 (NDM-1) | Fold reduction in Imipenem MIC in the presence of compounds (μg/mL) 4 [3] | Fold reduction in Imipenem MIC in the presence of compounds (μg/mL) 8 [3] | Fold reduction in Imipenem MIC in the presence of compounds (μg/mL) 16 [3] | Fold reduction in Imipenem MIC in the presence of compounds (μg/mL) 32 [3] | MIC ([1]; ATCCBAA2146, antibiotic alone, read-out: MIC of meropenem against Klebsiella pneumoniae ATCC BAA-2146) | Structure (SMILES)
7 | > 128 µg/mL | > 128 µg/mL | 4 fold | 4 fold | 4 fold | 16 fold | 0.096 µM | 0.103 µM | 4 fold | 8 fold | 8 fold | 16 fold | – | COc1ccc(F)cc1-c1c(C(=O)O)[nH]c2c1CCc1ccccc1-2 [Example 34, 3-(5-Fluoro-2-methoxyphenyl)-4,5-dihydro-1H-benzo[g]indole-2-carboxylic Acid]
8 | > 128 µg/mL | > 128 µg/mL | 2 fold | 2 fold | 4 fold | 4 fold | 2.05 µM | 0.319 µM | – | – | – | – | – | Cc1ccc(-c2c(C(=O)O)[nH]c3c2CCc2ccccc2-3)c(F)c1 [Example 49, 3-(2-fluoro-4-methylphenyl)-4,5-dihydro-1H-benzo[g]indole-2-carboxylic Acid]
9 | > 128 µg/mL | > 128 µg/mL | 4 fold | 8 fold | 8 fold | 8 fold | 1.56 µM | – | 4 fold | 8 fold | 8 fold | 16 fold | – | O=C(O)c1[nH]c2c(c1-c1cc(Cl)c(Cl)c(Cl)c1)CCc1ccccc1-2 [Example 60, 3-(3,4,5-trichlorophenyl)-4,5-dihydro-1H-benzo[g]indole-2-carboxylic Acid]
10 | > 128 µg/mL | > 128 µg/mL | – | – | – | – | 4.05 µM | 2.36 µM | 4 fold | 4 fold | 8 fold | 8 fold | – | O=C(O)c1[nH]c2c(c1-c1ccccc1)CCc1ccccc1-2 [Example 63, 3-phenyl-4,5-dihydro-1H-benzo[g]indole-2-carboxylic Acid]
11 | > 128 µg/mL | > 128 µg/mL | – | – | – | – | 0.821 µM | 1.42 µM | 4 fold | 4 fold | 8 fold | 8 fold | – | CC1Cc2c([nH]c(C(=O)O)c2-c2cc(F)cc(Cl)c2)-c2ccccc21 (stereo not shown) [Example 64, 3-(3-chloro-5-fluorophenyl)-5-methyl-4,5-dihydro-1H-benzo[g]indole-2-carboxylic Acid]
12 | – | – | – | – | – | – | – | – | – | – | – | – | 128 µg/mL | C[C@@H](O)[C@H]1C(=O)N2C(C(=O)O)=C(S[C@@H]3CN[C@H](C(=O)N(C)C)C3)[C@H](C)[C@H]12 [meropenem, reference compound]
